Paper PMC8389915, “Synthesis and Preclinical Validation of Novel Indole Derivatives as a GPR17 Agonist for Glioblastoma Treatment” (Journal of Medicinal Chemistry, 2021)

Target: G protein-coupled receptor 17 (GPR17) (Homo sapiens, UniProt Q13304)
Sequence (Q13304 whole entry): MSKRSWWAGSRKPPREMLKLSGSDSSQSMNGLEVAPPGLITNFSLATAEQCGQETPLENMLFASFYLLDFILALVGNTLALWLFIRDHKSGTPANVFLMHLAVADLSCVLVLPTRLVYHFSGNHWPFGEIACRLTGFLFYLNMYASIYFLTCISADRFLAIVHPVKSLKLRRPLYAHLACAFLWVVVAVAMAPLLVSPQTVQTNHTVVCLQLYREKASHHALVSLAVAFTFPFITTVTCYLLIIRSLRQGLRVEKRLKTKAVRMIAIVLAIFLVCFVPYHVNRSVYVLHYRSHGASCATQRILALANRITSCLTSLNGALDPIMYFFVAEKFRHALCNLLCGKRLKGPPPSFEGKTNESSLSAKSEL

Molecule `O=C(Nc1ccccc1)Oc1cc(OC(=O)Nc2ccccc2)c2c(c1)N(C(c1ccc(F)cc1)c1cccc(Cl)c1O)CC2` (stereo not shown) [CHBC, 1-((3-chloro-2-hydroxyphenyl)(4-fluorophenyl)methyl)indoline-4,6-diyl bis(phenylcarbamate)] has an EC50 of 19.2 µM.
